Read-outs that look alike come from different tables or passages of the source.
Assays:
ecNadD = ecNadD (Escherichia coli (strain K12), UniProt P0A752); test: biochemical; assay type: biochemical; settings: for IC50: IC50 ecNadD; for inhibition at 100 µM: read-out: INHIBITION (%) E. coli
baNadD = baNadD (Bacillus anthracis, UniProt C3L5T6); test: biochemical; assay type: biochemical; settings: for inhibition at 50 µM: read-out: INHIBITION (%) B. anthracis
Sequence of baNadD (C3L5T6 whole entry, looked up): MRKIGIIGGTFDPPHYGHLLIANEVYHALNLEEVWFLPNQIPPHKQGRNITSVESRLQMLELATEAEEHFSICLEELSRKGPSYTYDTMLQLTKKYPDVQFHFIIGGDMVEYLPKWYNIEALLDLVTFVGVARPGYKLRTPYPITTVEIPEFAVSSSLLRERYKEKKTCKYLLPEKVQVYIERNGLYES

Row | Compound | IC50 (ecNadD) | inhibition at 100 µM (ecNadD) | inhibition at 50 µM (baNadD) | IC50 (baNadD; IC50 baNadD) | other results
1 | O=C(CCC(=O)Nc1cccc(Br)c1)N/N=C/c1c2ccccc2cc2ccccc12 [01_01] | 6 µM | 90% | 81% |  | IC50 (baNadD; read-out: IC50 baNadD): 4 µM
2 | O=C(CCC(=O)Nc1ccccc1Br)N/N=C/c1c2ccccc2cc2ccccc12 [01_04] | 15 µM | 79% | 100% |  | IC50 (baNadD; read-out: IC50 baNadD): 25 µM
3 | CC(/C=N/NC(=O)CCC(=O)Nc1ccc(Br)cc1)c1ccc2ccccc2c1 (stereo not shown) [01_05] | 88 µM | 78% | 76% |  | 
4 | O=C(CCC(=O)Nc1ccc(I)cc1)N/N=C/c1cccc(Br)c1 [01_06] |  | 78% | 54% |  | 
5 | Cc1ccc(NC(=O)CCC(=O)N/N=C/c2cccc(Br)c2)cc1 [01_08] |  | 75% | 74% |  | 
6 | O=C(CCC(=O)Nc1ccc(Br)cc1)N/N=C/c1ccc(Br)cc1 [01_09] |  | 74% | 68% |  | 
7 | O=C(CCC(=O)Nc1cccc(Br)c1)N/N=C/c1cccc(Br)c1 [01_10] |  | 72% | 53% |  | 
8 | COc1ccc(/C(C)=N/NC(=O)CNc2cc(Br)c(C)c(Br)c2)c(OC)c1 [01_11] |  | 70% | 86% |  | IC50 (baNadD; read-out: IC50 baNadD): 30 µM
9 | O=C(CCC(=O)Nc1ccc(Br)cc1)N/N=C/C=C/c1ccccc1 [01_12] |  | 68% | 75% | 48 µM | 
10 | O=C(CCC(=O)Nc1ccc(Br)cc1)N/N=C/c1cccc(Br)c1 [01_13] |  | 67% | 29% |  | IC50 (baNadD; read-out: IC50 baNadD): 170 µM
11 | Cc1ccc(/C=N/NC(=O)CCC(=O)Nc2ccc(C)cc2)cc1 [01_14] |  | 60% | 70% |  | 
12 | O=C(CCC(=O)Nc1ccc(Br)cc1)N/N=C/c1ccc(F)cc1 [01_15] |  | 47% | 22% |  | IC50 (baNadD; read-out: IC50 baNadD): 122 µM
13 | O=C(CCC(=O)Nc1ccc(F)cc1)N/N=C/c1ccc(O)cc1 [01_16] |  | 42% | 29% |  | 
14 | O=C(CCC(=O)Nc1cccc(Br)c1)N/N=C/c1ccc(I)cc1 [01_17] |  | 41% | 35% |  | 
15 | C/C(=N/NC(=O)CCC(=O)Nc1ccc(Br)cc1)c1ccc(Br)cc1 [01_18] |  | 38% | 49% |  | 
16 | O=C(CCC(=O)Nc1ccccc1Cl)NN=Cc1ccc(C=NNC(=O)CCC(=O)Nc2ccccc2Cl)cc1 [1—02—1, N-(2-Chloro-phenyl)-3-(4-{[3-(2-chloro-phenylcarbamoyl)-propionyl]-hydrazonomethyl}-benzylidene-hydrazinocarbonyl)-propionamide] | 13 ± 2 µM |  |  |  | ecNadD inhibition (qualitative) (ecNadD): effective; baNadD inhibition (qualitative) (baNadD): effective; improvement in activity compared to precursors 1_13 and 1_15 (baNadD): more than 10 fold
17 | O=C(O)CNN=C(C(=O)CCC(=O)Nc1ccccc1Cl)c1ccc(C=NN(CC(=O)O)C(=O)CCC(=O)Nc2ccccc2Cl)cc1 [1—02—2, {N′-(4-{Carboxymethyl-[3-(2-chloro-phenylcarbamoyl)-propionyl]-hydrazonomethyl}-benzylidene)-N-[3-(2-chloro-phenylcarbamoyl)-propionyl]-hydrazino}-acetic acid] |  |  |  |  | inhibitory activity against baNadD (baNadD): did not inhibit
18 | O=C(O)CN(N=Cc1cccc2ccccc12)C(=O)CCC(=O)Nc1ccccc1Cl [1—02—3, {N-[3-(2-Chloro-phenylcarbamoyl)-propionyl]-N′-naphthalen-1-ylmethylene-hydrazino}-acetic acid] |  |  |  | > 200 µM | 
19 | Nc1c(C(=O)Nc2cc(F)ccc2F)sc2nc(-c3cccs3)ccc12 [03_01] | 25 µM |  |  | 25 µM | INHIBITION (%) E. coli (ecNadD): 100% 25; INHIBITION (%) B. anthracis (baNadD): 100% 25
20 | Nc1c(C(=O)Nc2cc(Cl)cc(Cl)c2)sc2nc(-c3cccs3)ccc12 [03_03] | 64 µM | 93% | 90% | 21 µM | 
21 | Nc1c(C(=O)Nc2ccc(Cl)cc2Cl)sc2nc(-c3ccncc3)ccc12 [03_04] | 21 µM | 84% | 79% | 21 µM | 

Row | Compound | IC50 (ecNadD) | inhibition at 100 µM (ecNadD) | inhibition at 50 µM (baNadD) | IC50 (baNadD; IC50 baNadD) | other results
22 | Nc1c(C(=O)Nc2ccc(F)cc2)sc2nc(-c3ccncc3)ccc12 [03_06] | > 200 µM | 80% | 40% | > 200 µM | 
23 | Nc1c(C(=O)Nc2ccc(F)cc2F)sc2nc(-c3cccs3)ccc12 [03_07] | 44 µM | 69% | 83% | 18 µM | 
24 | Nc1c(C(=O)Nc2ccc(Cl)cc2)sc2nc(-c3ccc(F)cc3)ccc12 [03_08] | > 200 µM | 68% | 28% | > 200 µM | 
25 | Nc1c(C(=O)Nc2ccc(Cl)c(Cl)c2)sc2nc(-c3cccs3)ccc12 [03_09] |  | 60% | 63% |  | 
26 | Nc1c(C(=O)Nc2cccc(F)c2)sc2nc(-c3ccc(F)cc3)ccc12 [03_10] |  | 56% | 60% |  | 
27 | Nc1c(C(=O)Nc2ccc(Cl)cc2Cl)sc2nc(-c3cccs3)ccc12 [03_11] | 30 µM | 54% | 90% | 13 µM | 
28 | Nc1c(C(=O)Nc2cccc(Cl)c2)sc2nc(-c3cccs3)ccc12 [03_12] | 71 µM | 53% | 89% | 15 µM | 
29 | Nc1c(C(=O)Nc2ccc(F)c(Cl)c2)sc2nc(-c3ccc(F)cc3)ccc12 [03_13] |  | 52% | 26% |  | 
30 | Nc1c(C(=O)Nc2ccc(F)c(F)c2)sc2nc(-c3cccs3)ccc12 [03_14] | 117 µM | 46% | 92% | 38 µM | 
31 | Nc1c(C(=O)Nc2cccc(Cl)c2)sc2nc(-c3ccc(F)cc3)ccc12 [03_16] | 50 µM | 46% | 83% | 35 µM | 
32 | Nc1c(C(=O)Nc2cc(F)ccc2F)sc2nc(-c3cccs3)ccc12 [03_18] | 35 µM |  |  | 14 µM | INHIBITION (%) E. coli (ecNadD): 41% 35; INHIBITION (%) B. anthracis (baNadD): 71% 14
33 | Nc1c(C(=O)Nc2ccc(Cl)cc2F)sc2nc(-c3ccc(F)cc3)ccc12 [03_19] |  | 32% | 61% |  | 
34 | Nc1c(C(=O)Nc2c(Cl)cccc2Cl)sc2nc(-c3cccnc3)ccc12 [03_20] | > 200 µM | 24% | 11% | > 200 µM | 
35 | NC(=O)c1sc2nc(-c3ccc(F)cc3)cc(-c3ccccc3)c2c1N [03_21] |  | 22% | 58% |  | 
36 | Nc1c(C(=O)Nc2ccc(F)c(Cl)c2)sc2nc(-c3ccncc3)ccc12 [03_22] | 100 µM | 21% | 83% | 39 µM | 
37 | Nc1c(C(=O)Nc2ccc(F)c(F)c2)sc2nc(-c3ccc(F)cc3)ccc12 [03_24] | > 200 µM | 9% | 5% | > 200 µM | 
38 | Sc1nnc(-c2ccncc2)n1-c1ccccc1Cl [compound 042] |  |  |  |  | […]. coli (ecNadD): 19%
39 | Nc1n[nH]c(N)c1/N=N/c1ccccc1 [compound 271] |  |  |  |  | […]. coli (ecNadD): 0%
40 | Nc1n[nH]c(N)c1/N=N/c1ccccc1 [compound 272] |  |  |  |  | […]. anthracis (baNadD): 23%
41 | O=C(CCS(=O)(=O)c1ccc(Br)s1)NCc1cccs1 [compound 285] |  |  |  |  | […]. coli (ecNadD): 0%

Reference: US8785499B2 (priority 2009, dated 2014)
